Measured values as given in ChEMBL document CHEMBL4680163, “Discovery of potent epidermal growth factor receptor (EGFR) degraders by proteolysis targeting chimera (PROTAC)” (Eur J Med Chem, 2020).
pIC50: −log10 of the molar value. Activity calls are given as the source filed them. No cut-off for these calls is given here.

Key:
[1] = system: HCC827; assay: Induction of apoptosis in human HCC827 cells assessed as necrotic cells at 1 uM incubated for 32 hrs by annexin V-FITC and PI staining based flow cytometry analysis (reference value: 7.12 %); assay type: functional
[2] = system: HCC827; assay: Induction of cell cycle arrest in human HCC827 cells assessed as accumulation in G1 phase at 0.1 uM incubated for 32 hrs by PI staining based flow cytometry analysis (reference value: 50.48 %); assay type: functional
[3] = system: HCC827; assay: Induction of apoptosis in human HCC827 cells assessed as viable cells at 0.1 uM incubated for 32 hrs by annexin V-FITC and PI staining based flow cytometry analysis (reference value: 76.79 %); assay type: functional; settings: read-out: Activity
[4] = system: HCC827; assay: Induction of cell cycle arrest in human HCC827 cells assessed as accumulation in G2 phase at 1 uM incubated for 32 hrs by PI staining based flow cytometry analysis (reference value: 8.25 %); assay type: functional
[5] = system: HCC827; assay: Induction of cell cycle arrest in human HCC827 cells assessed as accumulation in S phase at 1 uM incubated for 32 hrs by PI staining based flow cytometry analysis (reference value: 41.26 %); assay type: functional
[6] = system: HCC827; assay: Induction of cell cycle arrest in human HCC827 cells assessed as accumulation in S phase at 0.1 uM incubated for 32 hrs by PI staining based flow cytometry analysis (reference value: 41.26 %); assay type: functional
[7] = system: HCC827; assay: Induction of apoptosis in human HCC827 cells assessed as necrotic cells at 0.1 uM incubated for 32 hrs by annexin V-FITC and PI staining based flow cytometry analysis (reference value: 6.68 %); assay type: functional
[8] = system: HCC827; assay: Induction of cell cycle arrest in human HCC827 cells assessed as accumulation in G1 phase at 1 uM incubated for 32 hrs by PI staining based flow cytometry analysis (reference value: 50.48 %); assay type: functional
[9] = system: HCC827; assay: Induction of apoptosis in human HCC827 cells assessed as early apoptotic cells at 1 uM incubated for 32 hrs by annexin V-FITC and PI staining based flow cytometry analysis (reference value: 2.72%); assay type: functional
[10] = system: HCC827; assay: Induction of apoptosis in human HCC827 cells assessed as late apoptotic cells at 0.1 uM incubated for 32 hrs by annexin V-FITC and PI staining based flow cytometry analysis (reference value: 14.23 %); assay type: functional
[11] = system: HCC827; assay: Induction of cell cycle arrest in human HCC827 cells assessed as accumulation in G2 phase at 0.1 uM incubated for 32 hrs by PI staining based flow cytometry analysis (reference value: 8.25 %); assay type: functional
[12] = target: Epidermal growth factor receptor (Homo sapiens) (UniProt P00533); assay: Inhibition of EGFR in human HCC827 cells assessed as reduction in EGFR phosphorylation incubated for 36 hrs by Western blot analysis; assay type: cell-based; settings: dose 0.1-1 µM
Chain of Epidermal growth factor receptor (Homo sapiens) (P00533 whole entry): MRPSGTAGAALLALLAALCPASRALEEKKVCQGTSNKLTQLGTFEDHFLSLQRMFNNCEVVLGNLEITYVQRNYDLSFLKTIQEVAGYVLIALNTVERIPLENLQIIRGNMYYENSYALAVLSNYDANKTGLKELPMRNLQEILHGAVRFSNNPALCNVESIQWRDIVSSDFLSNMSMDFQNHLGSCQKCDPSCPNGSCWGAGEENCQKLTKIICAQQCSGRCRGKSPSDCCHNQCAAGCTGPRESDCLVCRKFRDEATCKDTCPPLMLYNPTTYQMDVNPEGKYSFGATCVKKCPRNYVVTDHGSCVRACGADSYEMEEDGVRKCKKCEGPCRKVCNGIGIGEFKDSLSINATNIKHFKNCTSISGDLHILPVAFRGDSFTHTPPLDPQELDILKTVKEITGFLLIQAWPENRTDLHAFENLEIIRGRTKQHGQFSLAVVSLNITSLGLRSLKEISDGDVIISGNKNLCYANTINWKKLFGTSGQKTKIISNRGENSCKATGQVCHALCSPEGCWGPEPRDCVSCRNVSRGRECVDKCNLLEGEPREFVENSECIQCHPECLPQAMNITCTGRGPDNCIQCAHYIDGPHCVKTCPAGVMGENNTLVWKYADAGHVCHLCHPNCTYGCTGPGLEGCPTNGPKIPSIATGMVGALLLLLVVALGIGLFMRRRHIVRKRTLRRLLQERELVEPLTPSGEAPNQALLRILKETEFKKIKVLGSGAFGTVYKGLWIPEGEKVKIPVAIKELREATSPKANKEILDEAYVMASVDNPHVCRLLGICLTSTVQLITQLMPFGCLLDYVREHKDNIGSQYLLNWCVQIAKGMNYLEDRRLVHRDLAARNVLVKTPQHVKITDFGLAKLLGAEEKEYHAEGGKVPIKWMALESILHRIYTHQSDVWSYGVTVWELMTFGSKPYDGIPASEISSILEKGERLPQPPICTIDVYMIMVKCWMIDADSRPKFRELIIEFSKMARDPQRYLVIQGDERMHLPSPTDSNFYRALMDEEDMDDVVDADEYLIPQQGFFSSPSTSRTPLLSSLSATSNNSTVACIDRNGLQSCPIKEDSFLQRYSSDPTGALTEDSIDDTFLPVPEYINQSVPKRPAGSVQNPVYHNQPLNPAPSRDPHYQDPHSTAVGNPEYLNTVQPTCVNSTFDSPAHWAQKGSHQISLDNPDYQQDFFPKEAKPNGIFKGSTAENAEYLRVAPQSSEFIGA

[13] = system: HCC827; assay: Induction of apoptosis in human HCC827 cells assessed as early apoptotic cells at 0.1 uM incubated for 32 hrs by annexin V-FITC and PI staining based flow cytometry analysis (reference value: 2.31 %); assay type: functional
[14] = system: HCC827; assay: Induction of apoptosis in human HCC827 cells assessed as viable cells at 1 uM incubated for 32 hrs by annexin V-FITC and PI staining based flow cytometry analysis (reference value: 72.15 %); assay type: functional; settings: read-out: Activity
[15] = system: HCC827; assay: Induction of apoptosis in human HCC827 cells assessed as late apoptotic cells at 1 uM incubated for 32 hrs by annexin V-FITC and PI staining based flow cytometry analysis (reference value: 18.02%); assay type: functional
[16] = system: HCC827; assay: Antiproliferative activity against human HCC827 cells harboring EGFRDel19 mutant assessed as reduction in cell viability incubated for 72 hrs by MTT assay; assay type: functional, cell-based; settings: HCC827, 72 h
[17] = system: NCI-H1975; assay: Antiproliferative activity against human NCI-H1975 cells harboring EGFR L858/T790M mutant assessed as reduction in cell viability incubated for 72 hrs by MTT assay; assay type: functional, cell-based; settings: NCI-H1975, 72 h
[18] = system: A-431; assay: Antiproliferative activity against human A-431 cells harboring EGFR assessed as reduction in cell viability incubated for 72 hrs by MTT assay; assay type: functional, cell-based; settings: A-431, 72 h
[19] = system: A549; assay: Antiproliferative activity against human A549 cells harboring EGFR assessed as reduction in cell viability incubated for 72 hrs by MTT assay; assay type: functional, cell-based; settings: A549, 72 h
[20] = system: A549; assay: Protac activity at E3 ubiquitin ligase/EGFR in human A549 cells harboring wild type EGFR assessed as increase in degradation of EGFR at 0.1 to 10 uM incubated for 48 hrs by Western blot analysis; assay type: cell-based; settings: dose 0.1-10 µM
[21] = system: HCC827; assay: (§1) Protac activity at E3 ubiquitin ligase/EGFR in human HCC827 cells assessed as increase in degradation of EGFR at 1 to 10 uM pretreated with MG-132 for 6 hrs followed by compound addition and measured after 30 hrs by Western blot analysis; assay type: cell-based; settings: dose 1-10 µM
[22] = system: HCC827; assay: as §1, with “0.1” for “1 to 10”, “(1-(6-(5-(4-(dimethylamino)piperidin-1-yl)pyridin-2-ylamino)-2-(4-fluorophenylamino)pyrido[3,4-d]pyrimidin-4-yl)piperidin-4-yl)methanol and incubated” for “MG-132”, “32” for “30”; assay type: cell-based
[23] = system: HCC827; assay: Protac activity at E3 ubiquitin ligase/EGFR in human HCC827 cells assessed as increase in degradation of EGFR measured upto 96 hrs by Western blot analysis; assay type: cell-based; settings: time hrs <=96, TDE = time-dependent effect
[24] = system: NCI-H1975; assay: Protac activity at E3 ubiquitin ligase/EGFR in human NCI-H1975 cells harboring EGFR T790M mutant assessed as increase in degradation of EGFR at 0.1 to 10 uM incubated for 48 hrs by Western blot analysis; assay type: cell-based; settings: dose 0.1-10 µM
[25] = system: HCC827; assay: Protac activity at E3 ubiquitin ligase/EGFR in human HCC827 cells assessed as increase in degradation of EGFR at 1 to 10 uM pretreated with MLN-4924 for 6 hrs followed by compound addition and measured after 30 hrs by Western blot analysis; assay type: cell-based; settings: dose 1-10 µM
[26] = (§2) Protac activity at E3 ubiquitin ligase/EGFR in human HCC827 cells assessed as increase in degradation of EGFR incubated for 48 hrs by Western blot analysis; assay type: cell-based; settings: HCC827, 48 h
[27] = system: HCC827; assay: as §2; assay type: cell-based
[28] = system: HCC827; assay: Protac activity at E3 ubiquitin ligase/EGFR in human HCC827 cells assessed as increase in degradation of EGFR at 100 nM pretreated with VHL-L for 5 hrs followed by compound addition and measured after 32 hrs by Western blot analysis; assay type: cell-based
[29] = system: HCC827; assay: Protac activity at E3 ubiquitin ligase/EGFR in human HCC827 cells assessed as increase in degradation of EGFR at 100 nM incubated for 72 hrs by Western blot analysis relative to control; assay type: cell-based
[30] = system: HCC827; assay: Protac activity at E3 ubiquitin ligase/EGFR in human HCC827 cells assessed as increase in degradation of EGFR at 100 nM pretreated with lenalidomide for 2 hrs followed by compound addition and measured after 48 hrs by Western blot analysis; assay type: cell-based
[31] = system: HCC827; assay: Protac activity at E3 ubiquitin ligase/EGFR in human HCC827 cells assessed as increase in degradation of EGFR at 100 nM incubated for 96 hrs by Western blot analysis relative to control; assay type: cell-based

pIC50 [16] | pIC50 [17] | pIC50 [18] | SMILES | Activity [1] [%] | Activity [2] [%] | viability at 0.1 µM [3] [%] | Activity [4] [%] | Activity [5] [%] | Activity [6] [%] | Activity [7] [%] | Activity [8] [%] | Activity [9] [%] | Activity [10] [%] | Activity [11] [%] | inhibition [12] | Activity [13] [%] | viability at 1 µM [14] [%] | Activity [15] [%] | pIC50 [19] | further results
< 5.00 | – | – | O=C1CCC(N2Cc3c(NC(=O)CCCCCN4CCN(c5ccc(Nc6cc7c(N8CCC(CO)CC8)nc(Nc8ccc(F)cc8)nc7cn6)nc5)CC4)cccc3C2=O)C(=O)N1 (stereo unspecified) | – | – | – | – | – | – | – | – | – | – | – | – | – | – | – | – | –
6.47 | 5.53 | 5.61 | Cc1ncsc1-c1ccc(CNC(=O)[C@@H]2C[C@@H](O)CN2C(=O)[C@@H](NCCOCCOCCN2CCN(c3ccc(Nc4cc5c(N6CCC(CO)CC6)nc(Nc6ccc(F)cc6)nc5cn4)nc3)CC2)C(C)(C)C)cc1 | – | – | – | – | – | – | – | – | – | – | – | – | – | – | – | – | –
5.75 | < 5.00 | < 5.00 | Cc1ncsc1-c1ccc(CNC(=O)[C@@H]2C[C@@H](O)CN2C(=O)[C@@H](NCCOCCOCCn2cc(CN3CCN(c4ccc(Nc5cc6c(N7CCC(CO)CC7)nc(Nc7ccc(F)cc7)nc6cn5)nc4)CC3)nn2)C(C)(C)C)cc1 | – | – | – | – | – | – | – | – | – | – | – | – | – | – | – | < 5.00 | –
5.83 | – | – | Cc1ncsc1-c1ccc(CNC(=O)[C@@H]2C[C@@H](O)CN2C(=O)[C@@H](NC(=O)CCCCN2CCN(c3ccc(Nc4cc5c(N6CCC(CO)CC6)nc(Nc6ccc(F)cc6)nc5cn4)nc3)CC2)C(C)(C)C)cc1 | – | – | – | – | – | – | – | – | – | – | – | – | – | – | – | – | –
5.10 | < 5.00 | < 5.00 | O=C1CCC(N2Cc3c(NC(=O)CCCCCCCn4cc(CN5CCN(c6ccc(Nc7cc8c(N9CCC(CO)CC9)nc(Nc9ccc(F)cc9)nc8cn7)nc6)CC5)nn4)cccc3C2=O)C(=O)N1 (stereo unspecified) | – | – | – | – | – | – | – | – | – | – | – | – | – | – | – | – | –

More lines, now with the values behind:

SMILES | pIC50 [16] | pIC50 [17] | pIC50 [18] | Activity [1] [%] | Activity [2] [%] | viability at 0.1 µM [3] [%] | Activity [4] [%] | Activity [5] [%] | Activity [6] [%] | Activity [7] [%] | Activity [8] [%] | Activity [9] [%] | Activity [10] [%] | Activity [11] [%] | inhibition [12] | Activity [13] [%] | viability at 1 µM [14] [%] | Activity [15] [%] | pIC50 [19] | further results
CN(C)C1CCN(c2ccc(Nc3cc4c(N5CCC(CO)CC5)nc(Nc5ccc(F)cc5)nc4cn3)nc2)CC1 | – | – | – | 16.48 | 78.84 | 39.5 | 7.56 | 13.43 | 13.43 | 8.35 | 78.98 | 4.79 | 43.7 | 7.72 | Active | 8.5 | 24.9 | 53.88 | – | –
Cc1ncsc1-c1ccc(CNC(=O)[C@@H]2C[C@@H](O)CN2C(=O)[C@@H](NC(=O)CCCCCCN2CCN(c3ccc(Nc4cc5c(N6CCC(CO)CC6)nc(Nc6ccc(F)cc6)nc5cn4)nc3)CC2)C(C)(C)C)cc1 | 6.66 | < 5.00 | < 5.00 | 9.9 | 81.94 | 59.7 | 8.86 | 7.99 | 11.67 | 6.62 | 83.15 | 4.36 | 25.73 | 6.39 | Dose-dependent effect | 7.95 | 22.4 | 63.29 | < 5.00 | Activity [20]: Active; Activity [21]: inactive; Activity [22]: inactive; Activity [23]: Tde; Activity [24]: Active; Activity [25]: Active; DC50 [26]: 34.8 nM; Activity [27]: Dose-dependent effect; Activity [28]: inactive; Emax [29]: 98%
O=C1CCC(N2Cc3c(NC(=O)CCCCN4CCN(c5ccc(Nc6cc7c(N8CCC(CO)CC8)nc(Nc8ccc(F)cc8)nc7cn6)nc5)CC4)cccc3C2=O)C(=O)N1 (stereo unspecified) | < 5.00 | – | – | – | – | – | – | – | – | – | – | – | – | – | – | – | – | – | – | –
O=C1CCC(N2Cc3c(NC(=O)CCCCCCCN4CCN(c5ccc(Nc6cc7c(N8CCC(CO)CC8)nc(Nc8ccc(F)cc8)nc7cn6)nc5)CC4)cccc3C2=O)C(=O)N1 (stereo unspecified) | 6.74 | < 5.00 | < 5.00 | 9.74 | 82.95 | 59.5 | 7.47 | 10.63 | 10.79 | 8.21 | 81.89 | 4.16 | 26.38 | 6.26 | Dose-dependent effect | 5.93 | 35.5 | 49.56 | < 5.00 | Activity [20]: Active; Activity [30]: inactive; Activity [21]: inactive; Activity [22]: inactive; Activity [23]: Tde; Activity [24]: Active; Activity [25]: Active; DC50 [26]: 45.2 nM; Activity [27]: Dose-dependent effect; Emax [31]: 87%
